Test results taken from paper PMC11024869, “The activity of antimicrobial peptoids against multidrug-resistant ocular pathogens” (Contact lens & anterior eye : the journal of the British …, 2024).
No end group written: not given here.

What was measured:
Proteinase K = Proteinase K (Parengyodontium album, UniProt P06873)
Procedure: (§1) Melimine was used as positive control as it is a cationic antimicrobial peptide that can be hydrolysed by proteases. The Expasy peptide cutter module (https://web.expasy.org/peptide_cutter/) was accessed to predict which proteases might digest melimine. The susceptibility of the antimicrobial compounds to digestion by two proteases expected to digest melimine, Proteinase K (120 unit mL^−1 in 20 mM Tris HCl, pH 7.4; New England Bio Labs, Australia) and Trypsin (10,350 BAFE units/mg in 50 mM borate buffer, pH 8.5; Thermo Scientific products, Australia), was tested. The peptoids and melimine were incubated with each protease at the ratio (w/w) of 1:100 in PBS (pH 7.4) for 24 h at 37 °C. After incubation, the peptoid/melimine + protease solutions were tested for their activity against P. aeruginosa 216 which was grown overnight in TSB at 37 °C. Bacterial cells were washed three times in PBS and then resuspended in MHB OD660nm of 0.1 (equal to 1x10^8 CFU mL^−1. The bacterial suspension was then diluted in MHB to a final working concentration of 5x10^6 cells mL^−1. The diluted bacterial suspension was subsequently added to the wells containing the peptoids/melimine + protease solution and incubated for 24 h at 37 °C. Peptoids/melimine solutions alone (no proteases) were used as a positive control, while protease solutions without the peptoids/melimine were used as a negative control. Post incubation, to inhibit the activity of the proteases, the bacterial suspensions were heated at 55 °C for 10 min in a water bath. After the heating step, the absorbance of the suspensions was measured at OD660nm.

Trypsin = target: T1, Trypsin (Bos taurus, UniProt P00760)
T1 sequence (P00760 24-246): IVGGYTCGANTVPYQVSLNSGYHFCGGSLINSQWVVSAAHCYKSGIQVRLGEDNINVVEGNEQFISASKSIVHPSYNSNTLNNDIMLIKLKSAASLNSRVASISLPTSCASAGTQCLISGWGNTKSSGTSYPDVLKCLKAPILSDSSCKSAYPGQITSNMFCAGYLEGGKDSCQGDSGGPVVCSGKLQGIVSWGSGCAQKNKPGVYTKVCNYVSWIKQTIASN
Procedure: as §1

Bacillus subtilis = conditions: cited from earlier work
Procedure: (§2) Peptoids act similarly to AMPs as their cationic regions interact electrostatically with the anionic membranes of bacteria and may also facilitate the targeting of intracellular DNA and ribosomal agglutination. […] For example, peptoids can have minimum inhibitory concentrations as low as 1.8 μg mL^−1 against Bacillus subtilis and 12.4 μg mL^−1 against Escherichia coli, whereas these bacteria had MICs of 4.5 μg mL^−1 and 35.6 μg mL^−1, respectively, with the AMP melittin [31] Di-guanidine peptoids, produced via acid amine-coupling between nap ...

Escherichia coli = conditions: cited from earlier work
Procedure: as §2

[1] = incubated with protease at ratio (w/w) 1:100 in PBS pH 7.4, 24 h 37 °C, then P aeruginosa 216 in MHB 24 h 37 °C, OD660nm
[2] = result in words, 24 h 37 °C, P. aeruginosa 216

Sequence of Proteinase K (P06873 106-384): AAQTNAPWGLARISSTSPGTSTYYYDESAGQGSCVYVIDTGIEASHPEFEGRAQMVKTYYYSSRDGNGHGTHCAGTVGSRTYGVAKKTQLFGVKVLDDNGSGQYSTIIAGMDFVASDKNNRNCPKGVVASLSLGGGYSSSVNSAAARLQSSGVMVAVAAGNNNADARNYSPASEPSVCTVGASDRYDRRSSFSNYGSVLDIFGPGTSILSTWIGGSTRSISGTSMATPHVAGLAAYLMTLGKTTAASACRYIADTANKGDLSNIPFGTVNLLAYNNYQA

Substance | MIC after Proteinase K (Proteinase K; [1]) | antimicrobial activity after digestion with proteinase K (Proteinase K; [2]) | MIC after Trypsin (Trypsin; [1]) | antimicrobial activity after digestion with trypsin (Trypsin; [2]) | MIC (Bacillus subtilis) [mg/L] | MIC (Escherichia coli) [mg/L]
TLISWIKNKRKQRPRVSRRRRRRGGRRRR [Melimine, reference compound] | >250 (66) μg mL^−1 | lost all of its antimicrobial activity | >250 (66) μg mL^−1 | lost all of its antimicrobial activity |  | 
melittin: the AMP melittin |  |  |  |  | 4.5 | 35.6
